# Laboratory results from article PMC8213385, “Development of a Fluorescent Assay to Search New Drugs Using Stable tdTomato-Leishmania, and the Selection of Galangin as a Candidate With Anti-Leishmanial Activity” (Frontiers in Cellular and Infection Microbiology, 2021).
# Like-named read-outs stand apart in the source and are kept apart here.
# Assays:
# [1] = tested on: promastigotes of L. amaz/tc3; test: Fluorescence assay against promastigotes of L. amaz/tc3 (tdTomato); format: cell-based, Leishmania (Leishmania) amazonensis; settings: 48 h; for IC50: Leishmania; for Inhibition of parasite growth (promastigotes): doses ≤ 40 µM, fluorescence assay
# Protocol: Then, we evaluated the efficacy of MI, a reference drug for leishmaniasis by the fluorescence method (L. amaz/tc3) and by the conventional method based in counting the parasite at the optic microscope (L. amaz/wt). Mid-log promastigotes of L. amaz/tc3 and L. amaz/wt were harvest and seeded (1 x 10^6/0.1 ml) with different concentrations of MI (40 to 0.6 µg/ml) in a 96-well plate at 23°C. Promastigotes cultured only in medium were the controls. Parasite viability was determined by measuring the fluorescence of L. amaz/tc3 in a plate reader (Tecan, Männedorf, Switzerland) and by counting the mobile promastigotes in a Neubauer chamber at the optic microscope (40x) (Leitz Wetzlar, Germany) at 48 h of incubation with MI. Viability was calculated with the formula: ViabilityL.amaz/tc3 =FLt/FLc×100 where, FLt is the fluorescence of treated culture, and FLc is the fluorescence of control; ViabilityL.amaz/wt=NPt/NPc×100 where, NPt is the number of promastigotes in the treated culture, and NPc is the number of promastigotes in control culture. Then, the 50% inhibitory concentration (IC50) of MI was estimated.
# After fluorescence assay validation as it is described above, the method was used to evaluate in vitro the flavonoids anti-leishmanial activity. Mid-log promastigotes of L. amaz/tc3 were harvest and seeded with different concentrations of GAL (1,200 to 18.75 µM), MO, FI and RU (40 to 1.25 µM), and EGCG (300 to 18.75 µM). Positive control were promastigotes treated with PE (4 to 0.25 µM), the negative control were promastigotes cultured with medium only, and the blank was the culture medium. The parasites were incubated at 23°C for 48 h. The anti-leishmanial activity was determined by measuring the parasite fluorescence in a plate reader (Tecan, Männedorf, Switzerland). The viability was estimated as was described above for MI (fluorescent assay). The IC50 was calculated for each compound.
# [2] = tested on: intracellular amastigotes of L. (L.) amazonensis; test: Microscopic assay, counting intracellular amastigotes in Raw 264.7 macrophages at the optic microscope; format: cell-based, Leishmania (Leishmania) amazonensis; settings: for SI (Selectivity index): CC50 for macrophages/IC50 for Leishmania (intracellular amastigotes; Ma from fluorescence IC50); for IC50: Leishmania amazonensis, RAW264.7, Raw 264.7 macrophages, 48 h, optic microscope, read-out: Microscopic IC50 μM (SE), intracellular amastigotes
# Protocol: (§1) Furthermore, the efficacy of MI was also determined against intracellular amastigotes of L. amaz/tc3 and L. amaz/wt. Raw 264.7 macrophages were plated in 96-well black plate (5 x 10^4 cells/well) and in eight well Lab-Tek tissue culture slides (6.6 x 10^4 cells/ml) (Nunc, USA). The cells were infected with promastigotes in stationary phase of L. amaz/tc3 and L. amaz/wt (1:20 ratio) at 33°C, 5% CO2. After incubation, the infected macrophages were washed to remove non-internalized parasites with PBS plus P-S. New RPMI-1640 medium with different concentrations of MI (20 to 0.62 µg/ml) was added to each well and incubated at 33°C, 5% CO2 during 48 h. The anti-leishmanial activity of MI was determined by measuring the fluorescence of intracellular amastigotes of L. amaz/tc3 in a plate reader (Tecan, Männedorf, Switzerland). The viability was calculated as mentioned above, and the IC50 was also estimated. Simultaneously, the leishmanicidal activity of MI against L. amaz/wt was determined by the microscopy test. In this case, the infected macrophages were stained with Diff Quik (Biopur S.R.L., Rosario, Argentina) and the number of intracellular amastigotes was determined in 200-500 macrophages in treated and control cultures per slide under the immersion lens microscope (100x) (Leitz Wetzlar, Germany). The infection index (II) and the % infectivity (I) were calculated by the following formulas: II = IM × A, where IM= infected macrophages (%), A= number of amastigotes per infected macrophages; and I(%)=IIT/IIc×100, where IIT= infection index in treated cultures, IIC= infection index in control cultures ([Ayres et al., 2008]). The IC50 of MI was calculated.
# Then, to estimate the IC50 values of GAL, FI and MO; and to confirm the IC50 of RU, the activity was evaluated quantifying the intracellular amastigotes at the optic microscope. We followed the same methodology described for MI (microscopic assay) in “In Vitro, Fluorescent Assay Validation” section and the range of concentrations were for GAL (30 to 7.5 µM), FI (60 to 15 µM), RU and MO (200 to 50 µM), EGCG (142 a 17.7 µM).
# [3] = Cytotoxicity in macrophage cell line by the MTT method (colorimetric); format: cell-based; settings: mouse
# Protocol: The cytotoxicity against a cell line of macrophages (Raw 264.7) of GAL, MO, FI, RU, EGCG, PE, MI and MA was determined by the MTT method. Cells (3.3 x 10^5/ml) cells were treated with different concentrations of each compound during 48 h at 37°C, 5% CO2. The controls were incubated with RPMI-1640 medium. Briefly, 50 µl of MTT (2 mg/mL) was added to each well and, after 4 h of incubation at 37°C, 5% CO2, the reaction was stopped dissolving the formazan crystals with 100 µl/well of dimethyl sulfoxide. The relative amount of formazan produced by viable macrophages was determined using a spectrophotometer at 595 nm. The percentage of viable cells was calculated according to the formula (OD treated culture−OD blank)/(OD control−OD blank) ×100 as was described previously ([Adinehbeigi et al., 2017]). The cytotoxicity concentration 50% (CC50) was calculated for each compound.
# [4] = tested on: promastigotes of L. amaz/tc3; test: Transmission electron microscopy of treated promastigotes; format: cell-based, Leishmania (Leishmania) amazonensis; settings: exposed to the IC50, 48 h
# Protocol: Ultrastructural alterations in Leishmania induced by flavonoids with anti-leishmanial activity were analyzed by transmission electron microscopy (TEM). […] The control was a culture of L. amaz/tc3 incubated in complete RPMI-1640 medium. After 48 h of incubation, samples of L. amaz/tc3 promastigotes from each culture were fixed in modified Karnovsky’s solution (formaldehyde [2.66%], glutaraldehyde [1.66%]) and PBS 0.1M (pH 7,4), and incubated overnight at 4°C. The fixed samples were post-fixed with a 1/1 solution of PBS/2% osmium tetroxide (OsO4), overnight. Then the material was dehydrated and included in Spurr (Pelco, USA). Ultrathin sections were cut with an ultramicrotome (MT1, Sorvall, USA), mounted on copper grids, and contrasted with uranyl acetate (PELCO, USA) and lead citrate.
# [5] = tested on: intracellular amastigotes of L. amaz/tc3; test: Fluorescence assay in the macrophage-amastigote model (Raw 264.7 infected with L. amaz/tc3); format: cell-based, Leishmania (Leishmania) amazonensis
# Protocol: as §1
# The flavonoids anti-leishmanial activity was also evaluated against intracellular amastigotes. Macrophages (Raw 264.7) were plated in 96-well black plate (5 x 10^4 cell/well) and infected with promastigotes in stationary phase of L. amaz/tc3 (1:20 ratio) at 33°C, 5% CO2. After incubation, the infected macrophages were washed to remove non-internalized parasites with PBS plus P-S. New RPMI-1640 medium with different concentrations of GAL (30 to 3.75 µM), MO (300 to 37.5 µM), FI (65 to 8.12 µM), RU (300 to 37.5 µM) and EGCG (30 to 7.5 µM) was added to each well and incubated at 33°C, 5% CO2 for 48 h. Infected cells treated with Ma (136.6 to 34.1 µM) were the positive controls, and cells incubated only with RPMI-1640 were the negative control. The infected macrophages were incubated during 48 h at 33°C, 5% CO2. After treatment, the fluorescence of intracellular amastigotes of L. amaz/tc3 was measured in a plate reader (Tecan, Männedorf, Switzerland). The viability was determined as was described for MI (fluorescent assay). The selectivity index (SI) (CC50 for macrophages/IC50 for Leishmania) was calculated.
# [6] = tested on: L. amaz/tc3; test: Efficacy of Ma in BALB/c mice infected with L. amaz/tc3; format: in vivo
# Protocol: Female BALB/c mice were infected in their hind right footpad with the stationary phase of promastigotes (5 x 10^6 parasites/0.05 ml) of L. amaz/tc3. Once a week the footpad swelling was measured with the digital caliper. Mice (n = 5) were treated with Ma in PBS (120 mg Sb/kg/day) starting at week 9 post-infection; the antimonial was administered by intraperitoneal injection (ip) once a day for 21 days. Control group (n = 5) received only PBS (ip). Within a week of finishing the Ma treatment, the parasite load was quantified by three methods, fluorescence (FL), optic microscope (OM) and limiting dilution assay (LD) in treated and control group. The FL method was carried out as follows, the hind right footpad was excised and weighed; then the tissue was homogenized using a glass grinder with 5 ml of complete RPMI-1640 medium and the intracellular amastigotes of L. amaz/tc3 were released. A sample (0.1 ml) of the homogenate was centrifuged to replace the medium for PBS, then it was plated in duplicates in a 96-well black culture plate with clear bottom (Nunc, USA) and the fluorescence was measured in a plate reader (Tecan, Männedorf, Switzerland). Besides, a calibration curve was used to extrapolate the sample fluorescence to the number of amastigotes. For that, a pool of amastigotes from control samples was used; amastigotes (1 x 10^6 to 1.5 x 10^4) were plated in duplicates in a 96-well black culture plate with clear bottom, and the fluorescence was measured in a plate reader (Tecan, Männedorf, Switzerland). The number of amastigotes was adjusted to the weight of the sample.
# Another sample of the tissue homogenate was used to quantify the parasite loads by direct counting in a Neubauer chamber under an optical microscope (40X) (Leitz Wetzlar, Germany), and the concentration of parasites (amastigotes/ml) of each homogenate was determined ([Hill et al., 1983]). The total number of parasites was adjusted to the weight of each tissue sample.
# Finally, a sample of the tissue homogenate was also used to quantify the parasite loads by the LD assay ([Lima et al., 1997]). After serial dilutions in 96-well plates, the samples were incubated at 23°C for 14 days and the number of viable promastigotes was determined from the highest dilution at which the parasite could grow.
# [7] = tested on: amastigotes of L. (L.) amazonensis; design: method as in Escobar et al., 2002; Morais-Teixeira et al., 2011; settings: published data ref Escobar et al., 2002; Morais-Teixeira et al., 2011; cited from earlier work
# [8] = tested on: promastigotes of L. (L.) amazonensis; design: method as in Escobar et al., 2002; Morais-Teixeira et al., 2011; settings: published data ref Escobar et al., 2002; Morais-Teixeira et al., 2011; cited from earlier work
# [9] = read-out: IC50 against promastigotes of L. amaz/tc3
# [10] = Raw 264.7 macrophage cell line, Raw 264.7, MTT, 48 h, read-out: Colorimetric CC50 μM (SE)
# [11] = 120 mg Sb/kg/day ip, 21 days, week 13, footpad
compound,measurement,setting,value
"O=C(O[C@@H]1Cc2c(O)cc(O)cc2O[C@@H]1c1cc(O)c(O)c(O)c1)c1cc(O)c(O)c(O)c1 [EGCG, (-)-epigallocatechin gallate, reference compound]",IC50,[1]; [9],120 ± 17.6 µM
same,SI (Selectivity index),[2],1.5
same,IC50,[2],130 µM
same,CC50 at 48 h,[3]; [10],194 µM
same,Ultrastructural alterations in promastigotes (TEM),[4],intense cytoplasmic vacuolization
"N=C(N)c1ccc(OCCCCCOc2ccc(C(=N)N)cc2)cc1 [PE, Pentamidine isethionate, reference compound]",IC50,[1]; [9],0.67 ± 0.18 µM
"O=c1c(O)c(-c2ccc(O)cc2O)oc2cc(O)cc(O)c12 [MO, morin]",Inhibition of parasite growth (promastigotes),[1],no inhibition
same,inhibition at 37.5 µM,"[5]; Leishmania, RAW264.7, 48 h, read-out: Fluorescence Inhibition (%) of amastigotes, 37.5 µM, 48 h",13.5%
same,SI (Selectivity index),[2],> 1.8
same,IC50,[2],122 µM
same,CC50 at 48 h,[3]; [10],> 230 µM
Meglumine antimoniate [Ma],IC50,"[5]; Raw 264.7 macrophages, 48 h, 33°C, read-out: Fluorescence IC50 μM (SE), intracellular amastigotes",80.3 µM
same,"Inhibition of parasite burden, fluorescence method (FL)",[6]; [11],55%
same,"Inhibition of parasite burden, limiting dilution (LD) assay",[6]; [11],54%
same,"Inhibition of parasite burden, optic microscope (OM)",[6]; [11],75%
same,Footpad swelling versus control group,"[6]; 120 mg Sb/kg/day ip, week 13, p < 0.05",significant difference
same,"Percentage of inhibition in the parasite load, fluorescence and LD assay","[6]; end of treatment, both methods",54-55%
"O=c1c(O)c(-c2ccc(O)c(O)c2)oc2cc(O)ccc12 [FI, fisetin]",Inhibition of parasite growth (promastigotes),[1],no inhibition
same,Fluorescence Inhibition (%) of amastigotes,"[5]; 15 µM, 48 h",31%
same,inhibition at 15 µM,"[5]; Leishmania, RAW264.7, 48 h, read-out: Fluorescence Inhibition (%) of amastigotes, 15 µM, 48 h",29 to 31%
same,SI (Selectivity index),[2],< 1
same,IC50,[2],> 60 µM
same,CC50 at 48 h,[3]; [10],52.6 µM
"C[C@@H]1O[C@@H](OC[C@H]2O[C@@H](Oc3c(-c4ccc(O)c(O)c4)oc4cc(O)cc(O)c4c3=O)[C@H](O)[C@@H](O)[C@@H]2O)[C@H](O)[C@H](O)[C@H]1O [RU, rutin]",Inhibition of parasite growth (promastigotes),[1],no inhibition
same,IC50,"[5]; Leishmania, RAW264.7, 48 h, read-out: Fluorescence IC50 μM (SE), intracellular amastigotes",171 µM
same,SI (Selectivity index),[2],> 1.8
same,IC50,[2],133 µM
same,CC50 at 48 h,[3],> 240 µM
"CCCCCCCCCCCCCCCCOP(=O)([O-])OCC[N+](C)(C)C [MI, Miltefosine, reference compound]",IC50,[1]; read-out: IC50 against promastigotes,5.25 ± 0.05 µg/mL
same,IC50,"[5]; Leishmania, RAW264.7, 48 h, read-out: IC50 against intracellular amastigotes",1.65 ± 0.75 µg/mL
same,Effective dose for amastigotes,[7],1.31 µg/mL
same,Effective dose for promastigotes,[8],7.54 µg/mL
